≈ marks a conversion by molar mass, not a printed value.
experiment: Solubility of sulfonamide herbicide in pH 7 buffered water; settings: pH 7, aqueous buffer, thermodynamic from solid
Procedure: At least 1 times up to about 5 times the amount of sulfonamide needed for saturation is added to a mixing vessel containing stock buffer solution at the test temperature (e.g., 20° C.). The mixture is magnetically stirred in the dark while being maintained at the test temperature. Samples are periodically removed for analysis. The samples are centrifuged using a high speed, temperature-controlled centrifuge at the test temperature for about 20 minutes at ≧12000 G to remove suspended particles. An aliquot of each supernatant is taken for analysis.
The concentration of sulfonamide in the supernatant is determined by a high pressure liquid chromatography (HPLC) method suitable for the particular sulfonamide. Typically the HPLC method will use a reversed phase chromatography column and UV detection. […] Also, the pH of the supernatant is measured using a calibrated pH meter capable of resolving differences of 0.1 pH units or less to verify that the pH is 7. Samples are successively withdrawn from the mixing vessel and analyzed until three successive samples show little or no variation in concentration. The test is preferably replicated to ensure accuracy.

| Compound | solubility [µg/mL] |
| --- | --- |
| COC(=O)c1ccccc1S(=O)(=O)NC(=O)Nc1nc(C)cc(C)n1 [sulfometuron-methyl, methyl 2-[[[[(4,6-dimethyl-2-pyrimidinyl)amino]carbonyl]amino]sulfonyl]benzoate] | < 1000 |
| CCOC(=O)c1ccccc1S(=O)(=O)NC(=O)Nc1nc(Cl)cc(OC)n1 [chlorimuron-ethyl, ethyl 2-[[[[(4-chloro-6-methoxy-2-pyrimdinyl)amino]carbonyl]amino]sulfonyl]benzoate] | 1000 to 10000 (≈ 2410 to 24100 µM) |
| COC(=O)c1ccccc1S(=O)(=O)NC(=O)N(C)c1nc(C)nc(OC)n1 [tribenuron-methyl, methyl 2-[[[[N-(4-methoxy-6-methyl-1,3,5-triazin-2-yl)-N-methylamino]carbonyl]-amino]sulfonyl]benzoate] | 1000 to 10000 (≈ 2530 to 25300 µM) |
| COC(=O)c1ccccc1S(=O)(=O)NC(=O)Nc1nc(C)nc(OC)n1 [metsulfuron-methyl, methyl 2-[[[[(4-methoxy-6-methyl-1,3,5-triazin-2-yl)amino]carbonyl]amino]sulfonyl]-benzoate] | 1000 to 10000 (≈ 2620 to 26200 µM) |
| COC(=O)c1ccccc1CS(=O)(=O)NC(=O)Nc1nc(OC)cc(OC)n1 [bensulfuron-methyl, methyl 2-[[[[[(4,6-dimethoxy-2-pyrimidinyl)amino]carbonyl]amino]-sulfonyl]methyl]benzoate] | < 1000 |

experiment: not given; settings: cited from earlier work

| Compound | Second pKa (conjugate acid) | Third pKa (conjugate acid) | First pKa (conjugate acid) |
| --- | --- | --- | --- |
| sodium phosphate dodecahydrate [Na3PO4.12H2O] | 7.2 | 2.1 | – |
| O=P([O-])([O-])OP(=O)([O-])[O-].[Na+].[Na+].[Na+].[Na+] [Na4P2O7, sodium pyrophosphate] | 7.0 | 2.0 | 9.0 |
| O.O=C([O-])[O-].[Na+].[Na+] [Na2CO3.H2O, sodium carbonate monohydrate] | 6.4 | – | 10.2 |
| O=C([O-])[O-].[K+].[K+] [K2CO3, potassium carbonate] | 6.4 | – | 10.2 |
| O=C([O-])[O-].[Na+].[Na+] [Na2CO3, sodium carbonate] | 6.4 | – | 10.2 |
| O=P([O-])([O-])OP(=O)([O-])[O-].[K+].[K+].[K+].[K+] [K4P2O7, potassium pyrophosphate] | 7.0 | 2.0 | 9.0 |

experiment: not given; settings: in water at ambient temperatures, typically about 20 to 25° C.; cited from earlier work

| Compound | pKa |
| --- | --- |
| CCOC(=O)c1cnn(C)c1S(=O)(=O)NC(=O)Nc1nc(OC)cc(OC)n1 [pyrazosulfuron-ethyl, ethyl 5-[[[[(4,6-dimethoxy-2-pyrimidinyl)amino]carbonyl]amino]sulfonyl]-1-methyl-1H-pyrazole-4-carboxylate] | 3.7 |
| N-[[[2-(cyclopropylcarbonyl)phenyl]amino]sulfonyl]-N^1-(4,6-dimethoxypyrimidin-2-yl)urea [cyclosulfamuron] | 5.0 |
| CCOc1nc(NC)nc(NC(=O)NS(=O)(=O)c2ccccc2C(=O)OC)n1 [ethametsulfuron-methyl, methyl 2-[[[[[4-ethoxy-6-(methylamino)-1,3,5-triazin-2-yl]amino]carbonyl]amino]sulfonyl]benzoate] | 4.6 |
| methyl 2-[[[[[4,6-bis(trifluoromethoxy)-2-pyrimidinyl]amino]carbonyl]amino]sulfonyl]-benzoate [primisulfuron-methyl] | 3.5 |
| COc1cc(OC)nc(NC(=O)NS(=O)(=O)N(C)S(C)(=O)=O)n1 [amidosulfuron, N-[[[[(4,6-dimethoxy-2-pyrimdinyl)amino]carbonyl]amino]-sulfonyl]-N-methylmethanesulfonamide] | 3.6 |
| CCOc1nc(F)cc2nc(S(=O)(=O)Nc3c(Cl)cccc3C(=O)OC)nn12 [cloransulam-methyl, methyl 3-chloro-2-[[(5-ethoxy-7-fluoro[1,2,4]-triazolo[1,5-c]pyrimidin-2-yl)sulfonyl]amino]benzoate] | 4.8 |
| COc1cc(OC)nc(NC(=O)NS(=O)(=O)c2ncccc2OCC(F)(F)F)n1 [trifloxysulfuron, N-[[(4,6-dimethoxy-2-pyrimidinyl)amino]-carbonyl]-3-(2,2,2-trifluoroethoxy)-2-pyridinesulfonamide] | 4.8 |
| COc1nc(C)nc(NC(=O)NS(=O)(=O)c2ccccc2OCCCl)n1 [triasulfuron, 2-(2-chloroethoxy)-N-[[(4-methoxy-6-methyl-1,3,5-triazin-2-yl)amino]carbonyl]benzenesulfonamide] | 4.6 |
| COCCOc1ccccc1S(=O)(=O)NC(=O)N=c1nc(OC)[nH]c(OC)n1 [cinosulfuron, N-[[(4,6-dimethoxy-1,3,5-triazin-2-yl)amino]carbonyl]-2-(2-methoxyethoxy)benzenesulfonamide] | 4.7 |
| COC(=O)c1c(Cl)nn(C)c1S(=O)(=O)NC(=O)Nc1nc(OC)cc(OC)n1 [halosulfuron-methyl, methyl 3-chloro-5-[[[[(4,6-dimethoxy-2-pyrimidinyl)amino]carbonyl]amino]sulfonyl]-1-methyl-1H-pyrazole-4-carboxylate] | 3.4 |
| COc1ncc(F)c2nc(S(=O)(=O)Nc3c(F)cccc3F)nn12 [florasulam, N-(2,6-difluorophenyl)-8-fluoro-5-methoxy[1,2,4]triazolo[1,5-c]pyrimidine-2-sulfonamide] | 4.5 |

— US8071508B2, “Process for preparing paste-extruded sulfonamide compositions” (priority 2002, dated 2011)
